Results reported in patent US5998596A, “Inhibition of protein kinase activity by aptameric action of oligonucleotides” (The United States of America as represented by the …).

Tests used:
p210^bcr-abl kinase [1] = test: Immunoprecipitation kinase assay of p210bcr-abl (autophosphorylation), ODN added to kinase reaction; assay type: biochemical, human; conditions: for inhibition of p210^bcr-abl kinase activity in vitro (in words): ODN at 1 μM added to the immunoprecipitated enzyme
Experimental: (§1) The p210^bcr-abl kinase, src kinase and cdc-2 kinase were immunoprecipitated from K562 cells. The p145^abl kinase was immunoprecipitated from PC3M cells, PDGF receptor kinase from 3T3 cells, and EGF receptor kinase from A431 cells. MAP kinase was utilized as a pure protein and lck kinase was immunoprecipitated from peripheral blood lymphocytes of a normal volunteer.
Cells were washed in phosphate buffered saline (PBS) and 0.5-5×10^6 cells were solubilized in 1 ml of the specified cell lysis buffers. Unless otherwise stated, all cell lysis buffers contained the following protease inhibitors: 20 μg/ml leupeptin, 1 μg/ml aprotinin, and 1 mM phenylmethylsulfonylfluroide. For p210^bcr-abl and […] immunoprecipitation, cells were lysed with ABL lysis buffer (25 mM imidazole, pH 7.2, 0.5% NP40, 50 mM NaCl, 1 mM Na3 VO4) and lysates were clarified at 14,000 g. 4° C. for 30 minutes. Cell lysis for all other proteins was performed according to the references describing the various immunoprecipitation kinase assays.
(§2) Immunoprecipitation kinase assays of p210^bcr-abl p145^abl were performed as described, with modifications (15). Briefly, for p210^bcr-abl, 1 μg of anti-bcr antibody (clone 7C6, Oncogene Science, Uniondale, N.Y.) was added to lysates prepared from 0.5-1×10^6 K562 cells. For p145^abl, 1 μg of anti-c-abl antibody (clone 24-21), which binds to the C-terminal domain of p145^abl, was added to lysates prepared from 5×10^6 PC3M cells. After incubating 1 hour at 4° C., complexes were precipitated by incubating with protein A-Sepharose coated with rabbit anti-mouse immunoglobulin (Cappel Research Products, Durham, N.C.) for 30 minutes. The complexes were then washed as follows: ABL lysis buffer×2, PBS×1, and ABL assay buffer×1 (24 mM imidazole, pH 7.2, 1 mg/ml bovine serum albumin, and 10 mM MnCl). For p145^abl assays ABL assay buffer contained 20 mM MnCl. To access the activity of p210^bcr-abl on substrate phosphorylation, acid inactivated enolase (Sigma Chemical Co., St. Louis, Mo.) was added as described (15).
ODNs were added to kinase reaction buffers not more than 5 minutes prior to the addition of ATP. Reactions were initiated by the addition of [γ^-32 P] ATP (3000 Ci/mmole; Amersham Corp., Arlington Heights, Ill.) and quenched by the addition of 5× gel loading buffer and heating to 95° C. Kinase reactions were run for 1-10 minutes at room temperature, except for EGFR, p145^abl, and MAP kinase, which were run at 30° C. The products were then electrophoresed on SDS-polyacrylamide gels: 7% for p210^bcr-abl, EGFR, and PDGFR, 8% for p145^abl, 10% for src, lck, and cdc-2 kinase, and 12% for MAP kinase. Gels were dried and reaction products were visualized by direct autoradiography at -70° C. with Kodak X-OMAT AR film. To determine the inhibitory concentration 50, i.e., the concentration required to inhibit enzyme activity by 50% (IC50) and Ki values, gel slices containing the band of interest were excised and analyzed by Cerenkov counting.

src kinase = test: Immunoprecipitation kinase assay of c-src with enolase as substrate; assay type: biochemical, human
Text: as §1
(§3) Epidermal growth factor receptor (EGFR) was immunoprecipitated with 10 ,g anti-EGFR antibody (clone LA1) and human recombinant epidermal growth factor (both from Upstate Biotechnology Inc., Lake Placid, N.Y.). The assay was performed as described (17) but without removing the EGFR from the protein A-antibody solid support. Instead, epidermal growth factor, at a final concentration of 100 nM, was added to the kinase reaction mixture. Platelet derived growth factor receptor (DGFR) was immunoprecipitated with anti-human type A/type B PDGFR antibody (Upstate Biotechnology Inc.) and immune complex kinase assays performed as referenced (18) except that protein A-Sepharose coated with rabbit anti-mouse immunoglobulin was used instead of formalin-fixed Staphylococcus aureus to bind PDGFR-antibody conjugates. C-src was immunoprecipitated with anti-v-src antibody (Ab-1; Oncogene Science) and assayed as previously described (19) with the addition of enolase as exogenous substrate. […]

p145^abl kinase = test: Phosphorylation of exogenous substrate enolase by p145abl; assay type: biochemical; conditions: ODN1 concentrations of up to 50 μM
Experimental: as §2
ODNs were added to kinase reaction buffers not more than 5 minutes prior to the addition of ATP. Reactions were initiated by the addition of [γ^-32 P] ATP (3000 Ci/mmole; Amersham Corp., Arlington Heights, Ill.) and quenched by the addition of 5× gel loading buffer and heating to 95° C. […]

lck kinase = test: Immunoprecipitation kinase assay of lck; assay type: biochemical
Text: as §1, §3

p210^bcr-abl kinase [2] = test: Phosphorylation of exogenous substrate enolase by p210bcr-abl; assay type: biochemical, human
Experimental: as §2
ODNs were added to kinase reaction buffers not more than 5 minutes prior to the addition of ATP. […]
P210^bcr-abl from K562 cells was immunoprecipitated and kinase assays performed in the presence or absence of 1 μM BCR-AS with varying amounts of enolase present. […] Note that inhibition of autophosphorylation can be readily seen in the absence of enolase (see lanes 5 and 10).

[3] = system: Platelet derived growth factor receptor (PDGFR); test: PDGFR autophosphorylation immune complex kinase assay; assay type: biochemical
Text: as §1, §3

[4] = Cerenkov counting of excised gel slices, mean ± SD
[5] = Cerenkov counting of excised gel slices
[6] = ODN1 concentrations greater than 2 logs above the Ki for p210^bcr-abl

Substance: 5'-GTCCACCATGGCGCGGCCGGC-3' [ODN1] (phosphorothioate caps, further chemistry not given here) [21mer ODN complementary to nucleotides -12 to +9 of the p210bcr-abl mRNA, phosphorothioate capped unless otherwise specified]
- p210^bcr-abl autophosphorylation in the presence of enolase (p210^bcr-abl kinase [1]; 1 μM BCR-AS, lower concentrations of enolase, three minute reaction): only a slight effect
- nature of the enzymatic inhibition with respect to ATP (p210^bcr-abl kinase [1]; 1 μM ODN1): purely noncompetitive
- IC50 (p210^bcr-abl kinase [1]; [4]): 520 ± 120 nM
- Percent Remaining Activity of p210^bcr-abl kinase relative to control (p210^bcr-abl kinase [1]; ODN 1 μM, phosphorothioate capped, mean ± SE of three experiments): 36 ± 1.2%
- inhibition of p210^bcr-abl kinase activity in vitro (in words) (p210^bcr-abl kinase [1]): markedly inhibited
- inhibition of p210^bcr-abl kinase activity in vitro (in words) (p210^bcr-abl kinase [1]; listed as ODN1 phosphorothioate capped): intermediate potencies
- Ki (p210^bcr-abl kinase [1]; various [γ-32P]ATP concentrations, presence or absence of 1 μM ODN1, double-reciprocal plot): 520 ± 120 nM
- IC50 (src kinase; [5]): > 100 µM
- inhibition of src (in words) (src kinase; [6]): not significantly inhibited
- inhibition of enolase phosphorylation by p145^abl (p145^abl kinase): no significant inhibition
- IC50 (lck kinase; [5]): > 50 µM
- inhibition of lck (in words) (lck kinase; [6]): not significantly inhibited
- phosphorylation of enolase by p210^bcr-abl (p210^bcr-abl kinase [2]; 1 μM BCR-AS, varying amounts of enolase, three minute reaction): no effect
- inhibition of enolase phosphorylation by p210^bcr-abl (p210^bcr-abl kinase [2]; ODN1 concentrations of up to 50 μM): no significant inhibition
- sensitivity of PDGF receptor relative to p145^abl or p210^bcr-abl [3]: almost a log less sensitive
- IC50 [3, 4]: 4.4 ± 2.3 µM
